In general, ED50 refers to the dose at which the effect has come halfway, by size or by number of responders.

Several values for one entry are separate records, joined by “and”; a condition that tells them apart may be missing. Identical values can stand only once. Bounds are passed on as bounds.

We go through three molecules from patent US20090030049A1, “MEDICAMENT FOR GENITAL HERPES” (ASTELLAS PHARMA INC., priority 2005, published 2009).

For the test, the system named is HSV-2 strain G. Put plainly: Therapeutic activity upon guinea pig HSV-2 genital herpes model (vaginal lesion score). The class given is in vivo. As to conditions: oral, twice a day, dose inhibiting 50% of average vaginal lesion score of placebo group at 9 days after infection, Hartley female guinea pig; for ED50: Human alphaherpesvirus 2, in Cavia porcellus, started after development of vaginal lesions (day 4 to 8 after infection), read-out: Lesion inhibitory activity (ED50; mg/kg) (4 to 8 days of administration after infection); for Comparative test (administration before the development of lesions) (ED50; mg/kg) (0 to 4 days of administration after infection): started 3 hours after HSV-2 infection until 4 days after infection. The protocol:
In vivo activity of the pharmaceutical composition of the present invention was tested using an HSV-2 infected guinea pig vagina genital herpes model in reference to the method of L. Stanberry et al. (Journal of Infectious Disease, 1982, 146, 397-404). An absorbent cotton swab was impregnated with an HSV-2 virus suspension (HSV-2 strain G 1.25×10^5 PFU/ml) and inserted into the vagina of a Hartley female guinea pig (4 weeks of age) under diethyl ether anesthesia, thereby infecting it with HSV-2. Vagina lesions and general conditions caused by the HSV-2 infection were scored based on the following 6 steps and evaluated every day from the infected day (0 day) to 9 days after the infection.
Score 1: formation of approximately 1 or 2 small blisters which can be observed with the naked eye
Score 2: formation of blisters in 10 to 50% per vaginal visible area
Score 3: formation of blisters in 50 to 100% per vaginal visible area
Score 4: formation of ulcers in 10 to 50% per vaginal visible area
Score 5: formation of ulcers in 50 to 100% per vaginal visible area
Score 6: paralysis of hind legs or death
Only guinea pigs in which the vaginal lesion score was judged to be 1 or 2 and development of lesions therefore was found were selected after the development of vaginal lesions by HSV-2 infection, namely 4 days after the infection, their grouping was carried out in such a manner that average values of the scores became even, and then administration of each compound to be tested was started. Each compound to be tested was made into a methyl cellulose suspension and orally administered twice a day for 5 days of from the 4th day to 8th day after the infection. Additionally, in order to compare degrees of the therapeutic effect due to difference in the administration starting period, a comparative test was simultaneously carried out in which the administration was started before the development of vaginal lesions (3 hours after the HSV-2 infection) and the administration was carried out in the same manner until 4 days after the infection. Each test was carried out using 10 animals per group of the guinea pigs and using VCV as the comparative compound.
Regarding the average vaginal lesion score of 9 days after the HSV-2 infection, the dose of each compound to be tested which inhibits 50% of the score of the placebo administration group (ED50 value; mg/kg, twice a day) was calculated, with the results shown in the following table.

As for `Cc1ccc(N(CC(=O)Nc2ccc(-c3cocn3)cc2)C(=O)C2CCS(=O)(=O)CC2)cc1` [Preparation 2, N-(4-methylphenyl)-N-(2-{[4-(1,3-oxazol-4-yl)phenyl]amino}-2-oxoethyl)tetrahydro-2H-thiopyran-4-carboxamide 1,1-dioxide], the ED50 stood at 3.1 mg/kg and the “Comparative test (administration before the development of lesions) (ED50; mg/kg) (0 to 4 days of administration after infection)” value (“Comparative test” below) is 1.3 mg/kg.
Consider `Cc1cccc(C)c1N(CC(=O)Nc1ccc(-c2ncon2)cc1)C(=O)C1CCS(=O)(=O)CC1` [Preparation 27, N-(2,6-dimethylphenyl)-N-(2-{[4-(1,2,4-oxadiazol-3-yl)phenyl]amino}-2-oxoethyl)tetrahydro-2H-thiopyran-4-carboxamide 1,1-dioxide], for which the 50% effective dose (ED50) worked out at 2.5 mg/kg and the “Comparative test” value is given as 1.2 mg/kg.
With `CC(C)[C@H](N)C(=O)OCCOCn1cnc2c(=O)[nH]c(N)nc21` [VCV, valacyclovir, reference compound], the ED50 is at least 300 mg/kg; the “Comparative test” value was 117 mg/kg and 50 mg/kg.
